15 compounds from PubChem BioAssay (NCI) can be followed below.

Structures are written as SMILES.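 Results reflect a 48-hour exposure of cells in 96-well plates to compound at five concentrations. The concentration for 50% growth inhibition is given as GI50. TGI: total growth inhibition.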

Some test systems named below: EKVX NSCLC; UACC-257 melanoma; SF-268 CNS; HCT-116 colon; BT-549 breast; M14 melanoma; MDA-MB-231 breast; MCF7 breast; HCC-2998 colon; CCRF-CEM leukemia.
Assay in all cases: DTP human tumour cell line panel, 48 h

As usually defined, the TGI is the concentration at which net growth stops. Read a high TGI as less potent growth arrest. A word on the GI50: it is the concentration that inhibits growth by half.

As to `CCOc1ccc(/C=C2/C(=O)N=C(NC(C)=O)N2C)cc1`, the total growth inhibition concentration (TGI) in the test on EKVX NSCLC, in the test with UACC-257 melanoma, in the test on SF-268 CNS, in the test on HCT-116 colon, in the test on BT-549 breast and with M14 melanoma was more than 100 µM throughout. Moreover, the TGI with MDA-MB-231 breast, in the test with MCF7 breast and in the test on HCC-2998 colon was more than 100 µM in each case.
In the case of `C=C([C@@]1(O)C[C@H]2[C@H](CCC2(OC)OC)[C@@H]2c3ccccc3O[C@@H]21)[Si](C)(C)C`, the TGI in the test on EKVX NSCLC, with UACC-257 melanoma, with SF-268 CNS, with HCT-116 colon, in the test on BT-549 breast and in the test on M14 melanoma was more than 100 µM in each case. Also, the TGI in the test on MDA-MB-231 breast, in the test with MCF7 breast and in the test on HCC-2998 colon was more than 100 µM in each case.
Turning to `CC1=NNC(=O)C1C(CC(=O)c1c[nH]c2ccccc12)C(=O)O` (centres undefined), the concentration for total growth inhibition (TGI) in the test with EKVX NSCLC, in the test with UACC-257 melanoma, with SF-268 CNS, with HCT-116 colon, in the test on BT-549 breast and in the test with M14 melanoma was more than 100 µM throughout. In addition, the TGI with MDA-MB-231 breast and in the test with CCRF-CEM leukemia was more than 100 µM each time.
Regarding `O=C1/C(=C/c2ccc(Cl)cc2)CSc2ccccc21`, the TGI in the test with UACC-257 melanoma was 37.4 µM; in the test on SF-268 CNS, 73 µM; in the test on BT-549 breast it was 78.6 µM; in the test on M14 melanoma, more than 100 µM; in the test with MDA-MB-231 breast it was 55.9 µM; with MCF7 breast it was 9.35 µM. Moreover, the TGI in the test on CCRF-CEM leukemia was found to be 9.26 µM.
Take `COc1cc2c3c(c1OC)C1(C=CC(=O)C=C1)C[C@H]3N(C)CC2`: the concentration for total growth inhibition (TGI) in the test on EKVX NSCLC, with UACC-257 melanoma, in the test with SF-268 CNS, with HCT-116 colon, in the test on M14 melanoma and in the test on HCC-2998 colon was more than 100 µM each time.
On to `Nc1ccc(S2(c3ccc(N)cc3)C=C(c3ccccc3)C(c3ccccc3)=C2)cc1`, for which the total growth inhibition concentration (TGI) in the test with EKVX NSCLC, in the test with UACC-257 melanoma, in the test with SF-268 CNS, in the test on HCT-116 colon, with M14 melanoma and in the test with MDA-MB-231 breast was more than 100 µM throughout. For the same compound, the concentration for total growth inhibition (TGI) in the test with MCF7 breast, in the test with HCC-2998 colon and in the test on CCRF-CEM leukemia was more than 100 µM throughout.
Turning to `OCc1ccc(C2CC(c3ccco3)=NN2c2ccccc2)o1` (centres undefined), the total growth inhibition concentration (TGI) with EKVX NSCLC, in the test on SF-268 CNS, in the test on HCT-116 colon, with M14 melanoma and in the test on CCRF-CEM leukemia was more than 100 µM in each case.
Regarding `Cc1ccc(S(=O)(=O)NC(=O)N[C@@H](Cc2cnc[nH]2)C(=O)O)cc1`, the TGI in the test with UACC-257 melanoma, in the test on SF-268 CNS, with HCT-116 colon, in the test with BT-549 breast, in the test with M14 melanoma and in the test with MDA-MB-231 breast was more than 100 µM throughout. In addition, the total growth inhibition concentration (TGI) with MCF7 breast and in the test on CCRF-CEM leukemia was more than 100 µM each time.
Consider `Cc1ccc(O)c(-c2cscn2)c1`, for which the concentration for total growth inhibition (TGI) in the test with EKVX NSCLC, with UACC-257 melanoma, in the test on HCT-116 colon, with BT-549 breast, in the test with M14 melanoma and with MCF7 breast was more than 100 µM throughout. For the same compound, the TGI in the test on HCC-2998 colon and in the test on CCRF-CEM leukemia was more than 100 µM in each case.
As to `C=C1CN2CC(=C)CN(C1)CS(=O)(=O)N1CC(=C)CN(CC(=C)C1)S(=O)(=O)N1CC(=C)CN(CC(=C)C1)S(=O)(=O)C2`, the concentration for total growth inhibition (TGI) in the test on EKVX NSCLC is more than 100 µM; with UACC-257 melanoma, 94.4 µM; in the test on SF-268 CNS it was more than 100 µM; in the test on HCT-116 colon it was more than 100 µM; in the test with BT-549 breast, more than 100 µM; in the test with M14 melanoma it was more than 100 µM. For the same compound, the TGI with MDA-MB-231 breast is 92.1 µM; in the test on MCF7 breast it was more than 100 µM; in the test on HCC-2998 colon it was 37.5 µM.
On to `CN1[C@@H]2C[C@@H](OC(=O)[C@H](CO)c3ccccc3)C[C@H]1[C@@H]1O[C@@H]12`, for which the TGI with EKVX NSCLC, in the test on UACC-257 melanoma, with HCT-116 colon, with BT-549 breast, in the test with M14 melanoma and with MDA-MB-231 breast was more than 100 µM each time. The TGI in the test on MCF7 breast and with CCRF-CEM leukemia was more than 100 µM each time.
With `COc1cc(OC)c(C2c3cc4c(cc3OC(N3CCCC3)C2C)OCO4)c(OC)c1` (centres undefined), the TGI was more than 100 µM in the test on EKVX NSCLC; 73 µM in the test with UACC-257 melanoma; 40.3 µM in the test with SF-268 CNS; 16.7 µM in the test with HCT-116 colon; 28.6 µM in the test on M14 melanoma; 48.1 µM in the test with MCF7 breast. Besides, the total growth inhibition concentration (TGI) with HCC-2998 colon stood at 21.9 µM; in the test on CCRF-CEM leukemia, 45.5 µM.
Regarding `CC(C)=CCNc1ncnc2c1ncn2CCC#N`, the TGI in the test on SF-268 CNS, in the test on HCT-116 colon, in the test on BT-549 breast, in the test on M14 melanoma, in the test on MDA-MB-231 breast and with MCF7 breast was more than 100 µM each time. For the same compound, the concentration for total growth inhibition (TGI) in the test with HCC-2998 colon and with CCRF-CEM leukemia was more than 100 µM throughout.
With `COc1ccc(-c2nn(-c3ccc(NC(=O)Nc4cc(C(F)(F)F)cc(C(F)(F)F)c4)cc3)cc2-c2ccncc2)cc1Cl`, the GI50 was 3.22 µM in the test with EKVX NSCLC; 3.5 µM in the test on UACC-257 melanoma; 3.71 µM in the test with SF-268 CNS; 1.53 µM with HCT-116 colon; 1.91 µM with M14 melanoma; 1.81 µM in the test on MDA-MB-231 breast. Moreover, the values for the GI50 in the test with MCF7 breast, in the test with HCC-2998 colon and with CCRF-CEM leukemia were 2.86 µM, 3.12 µM and 2.28 µM, respectively. Moreover, the TGI in the test on EKVX NSCLC is more than 100 µM; in the test with UACC-257 melanoma, 12.5 µM; in the test on SF-268 CNS, 85.8 µM; in the test with HCT-116 colon, 3.52 µM; in the test on M14 melanoma, 4.4 µM; in the test with MDA-MB-231 breast, 4.44 µM. For the same compound, the total growth inhibition concentration (TGI) with MCF7 breast is 9.72 µM; in the test on HCC-2998 colon, 46.7 µM; in the test with CCRF-CEM leukemia, more than 100 µM.
For the compound `CCC(=O)ONC(=O)Cn1ccc([N+](=O)[O-])n1`, the TGI in the test on EKVX NSCLC, in the test on UACC-257 melanoma, with SF-268 CNS, with HCT-116 colon, in the test with M14 melanoma and in the test on MDA-MB-231 breast was more than 100 µM each time. Besides, the concentration for total growth inhibition (TGI) in the test with MCF7 breast, with HCC-2998 colon and in the test on CCRF-CEM leukemia was more than 100 µM throughout.
